Assay results published in US20250115598A1 (Anaxis Pharma Pty Ltd, priority 2021, published 2025).

Assays:
human MLKL (full length) = human MLKL (full length) (Homo sapiens (Human), UniProt Q8NB16); test: KINOMEscan binding assay, human MLKL (full length); settings: hMLKL, Table 25; read-out: MLKL (KD)
Procedure, shortened: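 Assay principle: test compound competes with immobilized bead ligand for kinase; kinase retained, then eluted, is counted by qPCR. Conditions were 1% DMSO final with 11 compound concentrations in 3-fold steps, 30,000 nM top for most. The Hill equation with slope −1 gave Kd.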

[1] = test system: Immortalised Mouse Dermal Fibroblasts (MDFs); test: Cellular assay: inhibition of TSI induced necroptosis, CellTitre-Glo viability; settings: Mus musculus, Fibroblast; MDF, 3 hours TSI cocktail, Table 27; read-out: Inhibition of TSI-induced necroptosis (IC50 cell-based assay) in MDF
Procedure, shortened: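 Immortalised mouse dermal fibroblasts (2200 cells/well) pretreated 30 min with compound, 10-point 1:3 series from 36 μM, 0.3% DMSO. Then 3 h at 37° C. with TNF (100 ng/ml), Smac mimetic (500 nM) and IDN-6556 (10 μM). CellTiter-Glo luminescence normalised to DMSO (100%) and DMSO+TSI (0%); IC50 from 4-parameter logistic fit.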

endogenous MLKL in U937 = endogenous MLKL in U937 (Homo sapiens (Human), UniProt Q8NB16); test: Degradation assay: endogenous MLKL in U937 (western blot); settings: U937, 24 h incubation, read-out: Degradation of endogenous MLKL in U937 (DC50 cell-based assay)
endogenous MLKL in U937, sequence (Q8NB16 whole entry): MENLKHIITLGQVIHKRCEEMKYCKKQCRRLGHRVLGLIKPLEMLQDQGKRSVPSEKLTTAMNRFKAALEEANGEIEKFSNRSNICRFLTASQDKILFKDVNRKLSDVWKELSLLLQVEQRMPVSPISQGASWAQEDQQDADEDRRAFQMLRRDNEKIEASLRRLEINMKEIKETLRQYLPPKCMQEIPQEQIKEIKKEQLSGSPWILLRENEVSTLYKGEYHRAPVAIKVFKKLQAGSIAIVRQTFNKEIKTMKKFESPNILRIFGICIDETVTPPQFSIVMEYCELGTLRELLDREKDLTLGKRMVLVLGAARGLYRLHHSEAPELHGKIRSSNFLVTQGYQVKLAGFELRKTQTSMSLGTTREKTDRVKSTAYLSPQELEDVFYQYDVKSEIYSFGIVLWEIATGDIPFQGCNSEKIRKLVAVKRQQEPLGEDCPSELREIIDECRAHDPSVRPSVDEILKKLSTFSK
Procedure, shortened: (§1)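 MDF (seeded the day before) or U937 cells were treated 24 h at 37 °C, 10% CO2 with compound at 10, 2, 0.4, 0.08 and 0.016 μM final. Endogenous MLKL was quantified by western blot (anti-MLKL 3H1), normalized to GAPDH. Percent degradation was taken relative to DMSO control.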

endogenous MLKL in MDF = endogenous MLKL in MDF (Mus musculus (Mouse), UniProt Q9D2Y4); test: Degradation assay: endogenous MLKL in MDF (western blot); settings: MDF cells, 24 h incubation with compound, MLKL adjusted for loading with GAPDH, normalized to DMSO only control, read-out: Degradation of endogenous MLKL in MDF (DC50 cell-based assay)
endogenous MLKL in MDF, sequence (Q9D2Y4 whole entry): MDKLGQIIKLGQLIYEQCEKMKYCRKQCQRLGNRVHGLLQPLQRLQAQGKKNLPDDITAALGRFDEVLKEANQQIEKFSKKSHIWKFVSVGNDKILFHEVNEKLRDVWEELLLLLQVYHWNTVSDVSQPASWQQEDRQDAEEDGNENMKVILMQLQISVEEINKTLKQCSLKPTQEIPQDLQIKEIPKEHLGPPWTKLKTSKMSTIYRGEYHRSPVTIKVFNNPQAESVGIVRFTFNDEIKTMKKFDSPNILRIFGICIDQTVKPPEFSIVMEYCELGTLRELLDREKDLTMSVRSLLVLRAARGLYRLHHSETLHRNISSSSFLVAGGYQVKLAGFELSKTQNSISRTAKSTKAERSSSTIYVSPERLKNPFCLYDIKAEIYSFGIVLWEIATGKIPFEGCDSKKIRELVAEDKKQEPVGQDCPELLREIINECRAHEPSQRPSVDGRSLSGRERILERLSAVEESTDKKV
Procedure, shortened: as §1

human MLKL (full length), sequence (Q8NB16 whole entry): as the sequence (Q8NB16 whole entry) above

Cc1ncsc1-c1ccc(CNC(=O)[C@@H]2C[C@@H](O)CN2C(=O)[C@@H](NC(=O)C2(F)CC2)C(C)(C)C)c(OCCCCCCn2cc(-c3cnc(N)c4c(-c5ccc(NS(=O)(=O)C(F)F)c(O[C@@H](C)c6ccc(F)cc6)c5)nn(C)c34)cn2)c1 [Compound 1057, (2S,4R)-N-[(2-{[6-(4-{4-amino-3-[4-(difluoromethanesulfonamido)-3-[(1S)-1-(4-fluorophenyl)ethoxy]phenyl]-1-methyl-1H-pyrazolo[4,3-c]pyridin-7-yl}-1H-pyrazol-1-yl)hexyl]oxy}-4-(4-methyl-1,3-thiazol-5-yl)phenyl)methyl]-1-[(2S)-2-[(1-fluorocyclopropyl)formamido]-3,3-dimethylbutanoyl]-4-hydroxypyrrolidine-2-carboxamide]
Kd (human MLKL (full length)): 0.01 to 1 µM | IC50 [1]: 1 to 10 µM | DC50 (endogenous MLKL in U937): < 1 µM | DC50 (endogenous MLKL in MDF): 1 to 10 µM

C[C@H](Oc1cc(-c2nn(C)c3c(-c4cnn(C5CCC(C(=O)N6CCC(c7cccc8c7C(=O)N(C7CCC(=O)NC7=O)C8=O)CC6)CC5)c4)cnc(N)c23)ccc1NS(=O)(=O)C(F)F)c1ccc(F)cc1 (stereo partly shown) [Compound 1127]
Kd (human MLKL (full length)): 0.01 to 1 µM | IC50 [1]: < 1 µM | DC50 (endogenous MLKL in U937): < 1 µM | DC50 (endogenous MLKL in MDF): < 1 µM

C[C@H](Oc1cc(-c2nn(C)c3c(-c4cnn(C5CCN(C(=O)C6CC7(C6)CN(c6cccc8c6C(=O)N(C6CCC(=O)NC6=O)C8=O)C7)CC5)c4)cnc(N)c23)ccc1NS(=O)(=O)C(F)F)c1ccc(F)cc1 (stereo partly drawn) [Compound 1074, N-(4-{4-amino-7-[1-(1-{2-[2-(2,6-dioxopiperidin-3-yl)-1,3-dioxo-2,3-dihydro-1H-isoindol-4-yl]-2-azaspiro[3.3]heptane-6-carbonyl}piperidin-4-yl)-1H-pyrazol-4-yl]-1-methyl-1H-pyrazolo[4,3-c]pyridin-3-yl}-2-[(1S)-1-(4-fluorophenyl)ethoxy]phenyl)-1,1-difluoromethanesulfonamide]
Kd (human MLKL (full length)): 0.01 to 1 µM | IC50 [1]: < 1 µM | DC50 (endogenous MLKL in U937): < 1 µM | DC50 (endogenous MLKL in MDF): < 1 µM

Cn1nc(-c2ccc(NS(=O)(=O)CC(F)(F)F)c(F)c2)c2c(N)ncc(-c3cnn(C4CCN(C(=O)[C@H]5C[C@H](Nc6cccc7c6C(=O)N(C6CCC(=O)NC6=O)C7=O)C5)CC4)c3)c21 (stereo partly drawn) [Compound 1134, N-{4-[4-amino-1-methyl-7-(1-{1-[(trans)-3-{[2-(2,6-dioxopiperidin-3-yl)-1,3-dioxo-2,3-dihydro-1H-isoindol-4-yl]amino}cyclobutanecarbonyl]piperidin-4-yl}-1H-pyrazol-4-yl)-1H-pyrazolo[4,3-c]pyridin-3-yl]-2-fluorophenyl}-2,2,2-trifluoroethane-1-sulfonamide]
Kd (human MLKL (full length)): < 0.01 µM | IC50 [1]: < 1 µM | DC50 (endogenous MLKL in U937): < 1 µM | DC50 (endogenous MLKL in MDF): < 1 µM

CCS(=O)(=O)Nc1ccc(-c2nn(C)c3c(-c4cnn(C5CCN(C(=O)CCC6CCN(c7cccc8c7C(=O)N(C7CCC(=O)NC7=O)C8=O)CC6)CC5)c4)cnc(N)c23)cc1F (stereo not shown) [Compound 1088, N-[4-(4-amino-7-{1-[1-(3-{1-[2-(2,6-dioxopiperidin-3-yl)-1,3-dioxo-2,3-dihydro-1H-isoindol-4-yl]piperidin-4-yl}propanoyl)piperidin-4-yl]-1H-pyrazol-4-yl}-1-methyl-1H-pyrazolo[4,3-c]pyridin-3-yl}-2-fluorophenyl]ethane-1-sulfonamide]
Kd (human MLKL (full length)): < 0.01 µM | IC50 [1]: < 1 µM | DC50 (endogenous MLKL in U937): < 1 µM | DC50 (endogenous MLKL in MDF): < 1 µM

C[C@H](Oc1cc(-c2nn(C)c3c(-c4cnn(C5CCN(C(=O)C6CCC(c7cccc8c7C(=O)N(C7CCC(=O)NC7=O)C8=O)CC6)CC5)c4)cnc(N)c23)ccc1NS(=O)(=O)C(F)F)c1ccc(F)cc1 (stereo partly drawn) [Compound 1125, N-(4-{4-amino-7-[1-(1-{4-[2-(2,6-dioxopiperidin-3-yl)-1,3-dioxo-2,3-dihydro-1H-isoindol-4-yl]cyclohexane-carbonyl}piperidin-4-yl)-1H-pyrazol-4-yl]-1-methyl-1H-pyrazolo[4,3-c]pyridin-3-yl}-2-[(1S)-1-(4-fluorophenyl)ethoxy]phenyl)-1,1-difluoromethanesulfonamide]
Kd (human MLKL (full length)): 0.01 to 1 µM | IC50 [1]: < 1 µM | DC50 (endogenous MLKL in U937): < 1 µM | DC50 (endogenous MLKL in MDF): < 1 µM

C[C@H](Oc1cc(-c2nn(C)c3c(-c4cnn(C5CCN(C(=O)[C@H]6C[C@H]6C6CCN(c7cccc8c7C(=O)N(C7CCC(=O)NC7=O)C8=O)CC6)CC5)c4)cnc(N)c23)ccc1NS(=O)(=O)C(F)F)c1ccc(F)cc1 (stereo in doubt) [Compound 1129, N-[4-(4-amino-7-{1-[1-(2-{1-[2-(2,6-dioxopiperidin-3-yl)-1,3-dioxo-2,3-dihydro-1H-isoindol-4-yl]piperidin-4-yl}-(cis)-cyclopropanecarbonyl)piperidin-4-yl]-1H-pyrazol-4-yl}-1-methyl-1H-pyrazolo[4,3-c]pyridin-3-yl)-2-[(1S)-1-(4-fluorophenyl)ethoxy]phenyl]-1,1-difluoromethane-sulfonamide]
Kd (human MLKL (full length)): 0.01 to 1 µM | IC50 [1]: < 1 µM | DC50 (endogenous MLKL in U937): < 1 µM | DC50 (endogenous MLKL in MDF): < 1 µM

Cc1ncsc1-c1ccc(CNC(=O)[C@@H]2C[C@@H](O)CN2C(=O)[C@@H](NC(=O)C2(F)CC2)C(C)(C)C)c(OCCCCCn2cc(-c3cnc(N)c4c(-c5ccc(NS(=O)(=O)C(F)F)c(O[C@@H](C)c6ccc(F)cc6)c5)nn(C)c34)cn2)c1 [Compound 1068, (2S,4R)-N-[(2-{[5-(4-{4-amino-3-[4-(difluoromethanesulfonamido)-3-[(1S)-1-(4-fluorophenyl)ethoxy]phenyl]-1-methyl-1H-pyrazolo[4,3-c]pyridin-7-yl}-1H-pyrazol-1-yl)pentyl]oxy}-4-(4-methyl-1,3-thiazol-5-yl)phenyl)methyl]-1-[(2S)-2-[(1-fluorocyclopropyl)formamido]-3,3-dimethylbutanoyl]-4-hydroxypyrrolidine-2-carboxamide]
Kd (human MLKL (full length)): 0.01 to 1 µM | IC50 [1]: 1 to 10 µM | DC50 (endogenous MLKL in U937): 1 to 10 µM | DC50 (endogenous MLKL in MDF): < 1 µM

C[C@H](Oc1cc(-c2nn(C)c3c(-c4cnn(C5CCN(C(=O)CC(=O)N6CCN(c7cccc8c7C(=O)N(C7CCC(=O)NC7=O)C8=O)CC6)CC5)c4)cnc(N)c23)ccc1NS(=O)(=O)C(F)F)c1ccc(F)cc1 (stereo partly drawn) [Compound 1098, N-[4-(4-amino-7-{1-[1-(3-{4-[2-(2,6-dioxopiperidin-3-yl)-1,3-dioxo-2,3-dihydro-1H-isoindol-4-yl]piperazin-1-yl}-3-oxopropanoyl)piperidin-4-yl]-1H-pyrazol-4-yl}-1-methyl-1H-pyrazolo[4,3-c]pyridin-3-yl)-2-[(1S)-1-(4-fluorophenyl)ethoxy]phenyl]-1,1-difluoromethanesulfonamide]
Kd (human MLKL (full length)): < 0.01 µM | IC50 [1]: 1 to 10 µM | DC50 (endogenous MLKL in U937): < 1 µM | DC50 (endogenous MLKL in MDF): < 1 µM

C[C@H](Oc1cc(-c2nn(C)c3c(-c4cnn(C5CCN(CCc6ccc7c(c6)C(=O)N(C6CCC(=O)NC6=O)C7=O)CC5)c4)cnc(N)c23)ccc1NS(=O)(=O)C(F)F)c1ccc(F)cc1 (stereo partly drawn) [Compound 1123, N-(4-{4-amino-7-[1-(1-{2-[2-(2,6-dioxopiperidin-3-yl)-1,3-dioxo-2,3-dihydro-1H-isoindol-5-yl]ethyl}piperidin-4-yl)-1H-pyrazol-4-yl]-1-methyl-1H-pyrazolo[4,3-c]pyridin-3-yl}-2-[(1S)-1-(4-fluorophenyl)ethoxy]phenyl)-1,1-difluoromethanesulfonamide]
Kd (human MLKL (full length)): < 0.01 µM | IC50 [1]: < 1 µM | DC50 (endogenous MLKL in U937): < 1 µM | DC50 (endogenous MLKL in MDF): < 1 µM
